Columns and labels:
[1] = test system: smooth musculature of the isolated ileum of rabbits, made hypertonic by serotonin; experiment: Myorelaxing effect on isolated ileum made hypertonic by serotonin; settings: isolated rabbit ileum, relative to vincamine
Excerpt: (§1) The myorelaxing effect of MR 711 and vincamine has been investigated on the smooth musculature of the isolated ileum of rabbits, made hypertonic by sodium ions or serotonin.

mice = experiment: Protective action on the mortality by hypobaric hypoxia; format: in vivo; settings: intravenous route, 25.6 mg/kg; for Survival time: pressure reduced until 190 mm Hg; for % Variation: survival time versus controls
[2] = Acute toxicity in mice (LD50, Lichtfield and Wilcoxon); settings: mouse, in vivo, ip
[3] = test system: smooth musculature of the isolated ileum of rabbits, made hypertonic by sodium ions; experiment: Myorelaxing effect on isolated ileum made hypertonic by sodium ions; settings: isolated rabbit ileum, relative to vincamine
Excerpt: as §1

Structure (SMILES)	activity in inhibiting the serotonin induced contractions, higher than the corresponding activity displayed by vincamine [1] [%]	Survival time (mice) [s]	% Variation (mice)	LD50 [2] [mg/kg]	activity in inhibiting the sodium ions induced contractions, higher than the corresponding activity displayed by vincamine [3] [%]
CCC12C=C(C(=O)OCOC)n3c4c(c5ccccc53)CCN(CCC1)C42 (centres unmarked) [MR 711, 13a-ethyl-2,3,5,6,13a,13b-hexahydro-1 H-indolo[3,2,1-de]pyrido[3,2,1-ij]-[1,5]naphthyridine-12-methoxymethylcarboxylate]	70	262.9 ± 31.4	+263%	580	46
CC[C@]12CCCN3CCc4c(n(c5ccccc45)[C@@](O)(C(=O)OC)C1)[C@@H]32 [Vincamine]		213.3 ± 37.9	+194%	195	
